The values below come from ChEMBL document CHEMBL1221382, “N,O-diacyl-4-benzoyl-N-phenylhydroxylamines as photoinduced DNA cleaving agents” (Bioorg Med Chem Lett, 2010).

Common to all, as to assay type: nucleic-acid assay
In experiment [1] the test system is Nucleic Acid. Kind of experiment: Induction of DNA cleavage activity in Escherichia coli pBR322 assessed as supercoiled circular form after 10 mins by gel electrophoresis in presence of UV light. The arrangement: concentration or dose not given beside the values.
The subject of experiment [2] is Nucleic Acid. Briefly: Induction of DNA cleavage activity in Escherichia coli pBR322 assessed as relaxed circular form after 10 mins by gel electrophoresis in presence of UV light. More on the design: concentration or dose not given beside the values.
In experiment [3] the test system is Nucleic Acid. Briefly: Ratio of relaxed circular form of Escherichia coli pBR322 to supercoiled circular form of Escherichia coli pBR322 in absence of UV light.
Experiment [4] deals with Nucleic Acid. Briefly: Induction of DNA cleavage activity in Escherichia coli pBR322 assessed as supercoiled circular form after 10 mins by gel electrophoresis in presence of bubbling with argon gas.
The test system of experiment [5] is Nucleic Acid. Kind of experiment: Induction of DNA cleavage activity in Escherichia coli pBR322 assessed as supercoiled circular form after 10 mins by gel electrophoresis in presence of 0.1 M NaN3 solution.
Experiment [6] relates to Nucleic Acid. Briefly: Ratio of relaxed circular form of Escherichia coli pBR322 to supercoiled circular form of Escherichia coli pBR322 in presence of bubbling with argon gas.
Experiment [7] has as its system Nucleic Acid. Kind of experiment: Ratio of relaxed circular form of Escherichia coli pBR322 to supercoiled circular form of Escherichia coli pBR322 in presence of 0.1 M NaN3 solution.
For experiment [8], the system named is Nucleic Acid. Briefly: Induction of DNA cleavage activity in Escherichia coli pBR322 assessed as relaxed circular form after 10 mins by gel electrophoresis in presence of 0.1 M NaN3 solution. More on the design: scale not given: the % may be the effect or the level left.
In experiment [9] the test system is Nucleic Acid. Kind of experiment: Ratio of relaxed circular form of Escherichia coli pBR322 to supercoiled circular form of Escherichia coli pBR322 in presence of ascorbic acid.
Experiment [10] concerns Nucleic Acid. Kind of experiment: Induction of DNA cleavage activity in Escherichia coli pBR322 assessed as supercoiled circular form after 10 mins by gel electrophoresis in presence of ascorbic acid.
In experiment [11] the test system is Nucleic Acid. Kind of experiment: Induction of DNA cleavage activity in Escherichia coli pBR322 assessed as relaxed circular form after 10 mins by gel electrophoresis in absence of UV light. More on the design: scale not given: the % may be the effect or the level left.
For experiment [12], the system named is Nucleic Acid. Kind of experiment: Induction of DNA cleavage activity in Escherichia coli pBR322 assessed as relaxed circular form after 10 mins by gel electrophoresis in presence of bubbling with argon gas. The arrangement: scale not given: the % may be the effect or the level left.
Experiment [13] concerns Nucleic Acid. Kind of experiment: Induction of DNA cleavage activity in Escherichia coli pBR322 assessed as relaxed circular form after 10 mins by gel electrophoresis in presence of ascorbic acid. More on the design: scale not given: the % may be the effect or the level left.
Experiment [14] concerns Nucleic Acid. Kind of experiment: Induction of DNA cleavage activity in Escherichia coli pBR322 assessed as supercoiled circular form after 10 mins by gel electrophoresis in absence of UV light.

Take `O=C(ON(C(=O)c1ccccc1)c1ccc(C(=O)c2ccccc2)cc1)c1ccc(Cl)cc1`: the results for the Activity in the experiment with Nucleic Acid [1] and in the experiment with Nucleic Acid [2] were 65% and 35%, respectively.
For `O=C(ON(C(=O)c1ccccc1)c1ccc(C(=O)c2ccccc2)cc1)c1ccc([N+](=O)[O-])cc1` the same measures were 56.6% and 43.4%.
For `O=C(ON(C(=O)c1ccccc1)c1ccc(C(=O)c2ccccc2)cc1)c1ccc(F)cc1` the same measures were 37.1% and 62.9%.
The like results for `O=C(ON(C(=O)c1ccccc1)c1ccc(C(=O)c2ccccc2)cc1)c1ccccc1` were, in that order, 13.2% and 86.8%.
For `COc1ccc(C(=O)N(OC(=O)c2ccccc2)c2ccc(C(=O)c3ccccc3)cc2)cc1OC`, the Activity came out at 22.9% in the experiment with Nucleic Acid [1] and 77.1% with Nucleic Acid [2].
For `O=C(ON(C(=O)c1ccc(F)cc1)c1ccc(C(=O)c2ccccc2)cc1)c1ccccc1` the same measures were 59.2% and 40.8%.
As for `CC(=O)N(OC(=O)c1ccccc1)c1ccc(C(=O)c2ccccc2)cc1`, the Activity in the experiment on Nucleic Acid [1] came to 7.83%; in the experiment on Nucleic Acid [2] it was 92.2%.
For `O=C(ON(C(=O)c1ccc([N+](=O)[O-])cc1)c1ccc(C(=O)c2ccccc2)cc1)c1ccccc1` the same measures were 63.7% and 36.3%.
On to `COc1ccc(C(=O)ON(C(=O)c2ccccc2)c2ccc(C(=O)c3ccccc3)cc2)cc1OC`, for which the Activity in the experiment on Nucleic Acid [1] came to 11.2%; in the experiment with Nucleic Acid [2], 88.8%.
As to `CC(=O)ON(C(=O)c1ccccc1)c1ccc(C(=O)c2ccccc2)cc1`, the Ratio in the experiment on Nucleic Acid [3] worked out at 0.19; with Nucleic Acid [6] it was 2.79; in the experiment on Nucleic Acid [7], 3.18; in the experiment with Nucleic Acid [9] it was 0.31. Besides, the Activity in the experiment on Nucleic Acid [4] came to 26.1%; with Nucleic Acid [1], 25.6%; in the experiment on Nucleic Acid [5] it was 24.1%; in the experiment on Nucleic Acid [8] it was 76%; in the experiment on Nucleic Acid [10], 76.6%; with Nucleic Acid [11], 16.3%. Further, the Activity with Nucleic Acid [12] was determined as 73%; with Nucleic Acid [2], 73.9%; in the experiment with Nucleic Acid [13], 23.4%; with Nucleic Acid [14], 83.7%.
